Results on 4 molecules are retold here after US12637478B2, “Compound, preparation method thereof, and antibiotic composition comprising same” (priority 2020, dated 2026).

One assay concerns C. difficile 9689. The experiment in a line: MIC by agar dilution against Clostridioides difficile, test strain 13. The format is cell-based.
The test system of another assay is E. faecium^LinR. Description: MIC by broth microdilution (aerobic pathogens), test strain 12. The settings on record: Enterococcus faecium; test strain 12, E. faecium^LinR (linezolid resistant); read-out: MIC. The format is cell-based, Linezolid resistant Enterococcus faecium. Here is the method:
(§1) The antibacterial activity of the compounds of Examples 1 to 48 of the present invention against aerobic pathogens were evaluated by measuring the minimum concentration of the antibiotic capable of inhibiting bacterial growth by 90% compared to the growth of the non-drug treated control group. MIC was measured by the broth microdilution method based on CLSI standards [Reference: Clinical and Laboratory Standards Institute Document. (2000) Methods for Dilution Antimicrobial Susceptibility Test for Bacteria that Grow Aerobically-Fifth Edition: M7-A5. CLSI, Villanova, PA].
(§2) All 13 strains such as methicillin susceptible Staphylococcus aureus (MSSA), methicillin resistant Staphylococcus aureus (MRSA), Vancomycin resistant Staphylococcus aureus (VRSA), Staphylococcus epidermidis, methicillin resistant Staphylococcus epidermidis, Enterococcus faecalis, Vancomycin resistant Enterococcus faecalis, Enterococcus faecium, Vancomycin resistant Enterococcus faecium were used.
On the technique in general: In broth dilution the organism is exposed to a series of concentrations in liquid medium.

A further assay deals with C. difficile 152. Description: MIC by agar dilution against Clostridioides difficile, test strain 14. The format is cell-based.
Another assay concerns C. difficile 173. Description: MIC by agar dilution against Clostridioides difficile, test strain 17. The format is cell-based. (In general: In agar dilution, organisms are placed on agar that contains the substance at set levels.)
Another assay deals with C. difficile 181. The experiment in a line: MIC by agar dilution against Clostridioides difficile, test strain 19. The format is cell-based. The settings on record: test strain 19, C. difficile 181, anaerobic, agar dilution, read-out: MIC.
The test system of assay [1] is S. aureus^MS. The experiment in a line: MIC by broth microdilution (aerobic pathogens), test strain 1. Conditions: Staphylococcus aureus. The format is cell-based. How it is done: as §1, §2
Another assay concerns S. epidermis^MR. The experiment in a line: MIC by broth microdilution (aerobic pathogens), test strain 6. Format: cell-based, Methicillin resistant Staphylococcus epidermidis. The settings on record: Staphylococcus epidermidis. Here is the method:
as §1, §2

In another assay the test system is E. faecalis^VanA. The experiment in a line: MIC by broth microdilution (aerobic pathogens), test strain 8. The settings on record: Enterococcus faecalis; test strain 8, E. faecalis^VanA (vancomycin resistant); read-out: MIC. Format: cell-based, Vancomycin resistant Enterococcus faecalis. How it is done: as §1, §2
In another assay the test system is S. aureus^VR. The experiment in a line: MIC by broth microdilution (aerobic pathogens), test strain 4. The format is cell-based, Vancomycin resistant Staphylococcus aureus. The settings on record: Staphylococcus aureus; test strain 4, S. aureus^VR (vancomycin resistant); read-out: MIC. Here is the method:
as §1, §2

Assay [2] has as its system S. aureus^MS. The experiment in a line: MIC by broth microdilution (aerobic pathogens), test strain 2. The settings on record: Staphylococcus aureus. The format is cell-based. How it is done: as §1, §2
A further assay has as its system E. faecium^VRE. The experiment in a line: MIC by broth microdilution (aerobic pathogens), test strain 11. Format: cell-based, Vancomycin resistant Enterococcus faecium. Conditions: Enterococcus faecium; test strain 11, E. faecium^VRE (vancomycin resistant); read-out: MIC. Here is the method: as §1, §2
The test system of a further assay is E. faecium. The experiment in a line: MIC by broth microdilution (aerobic pathogens), test strain 10. The format is cell-based. The settings on record: Enterococcus faecium; test strain 10, E. faecium; read-out: MIC. Here is the method:
as §1, §2

The test system of the next assay is C. difficile 174. Description: MIC by agar dilution against Clostridioides difficile, test strain 18. Format: cell-based.
The next assay deals with E. faecalis^LinR. The experiment in a line: MIC by broth microdilution (aerobic pathogens), test strain 9. Conditions: Enterococcus faecalis. Format: cell-based, Linezolid resistant Enterococcus faecalis. Here is the method: as §1, §2
The test system of the next assay is E. faecalis. Description: MIC by broth microdilution (aerobic pathogens), test strain 7. The settings on record: Enterococcus faecalis; test strain 7, E. faecalis; read-out: MIC. The format is cell-based. How it is done: as §1, §2
The subject of another assay is S. epidermis. Description: MIC by broth microdilution (aerobic pathogens), test strain 5. The format is cell-based. The settings on record: Staphylococcus epidermidis. Here is the method:
as §1, §2

Another assay has as its system C. difficile 159. The experiment in a line: MIC by agar dilution against Clostridioides difficile, test strain 15. Format: cell-based.
The test system of the next assay is C. difficile 161. The experiment in a line: MIC by agar dilution against Clostridioides difficile, test strain 16. The format is cell-based. The settings on record: test strain 16, C. difficile 161, anaerobic, agar dilution, read-out: MIC.
A further assay deals with M. abscessus. Description: MIC by resazurin (REMA) assay against Mycobacterium, test strain 23. The format is cell-based. The settings on record: Mycobacteroides abscessus. How it is done:
In order to test the antibacterial activity, the medium of Mycobacterium cultured to late log phase was diluted so as to be 4.0×10^5 cells/well in Middlebrook 7H10 agar medium (Difco) supplemented with 10% oleic acid, albumin, dextrose, catalase (OADC, Becton Dickinson) and 0.05% Tween 80 (Sigma Aldrich) and was dispensed into a 96-well plate. The compounds were treated so that DMSO was 1%, and after 3 days, a 0.025% resazurin (REMA) solution was dispensed, and the growth of the bacteria was confirmed after culturing. The MIC value was measured for the antibacterial activity through resazurin (excitation 530 nm, emission 590 nm).
On the technique in general: Alamar Blue is a resazurin reagent that responds to reducing activity.

The mark [3] stands for this setting: test strain 13, C. difficile 9689, anaerobic, agar dilution, read-out: MIC.
Setting [4] is: test strain 14, C. difficile 152, anaerobic, agar dilution, read-out: MIC.
[5] abbreviates: test strain 17, C. difficile 173, anaerobic, agar dilution, read-out: MIC.
[6] abbreviates: test strain 1, S. aureus^MS, read-out: MIC.
Setting [7] is: test strain 6, S. epidermis^MR (methicillin resistant), read-out: MIC.
[8] abbreviates: test strain 2, S. aureus^MS, read-out: MIC.
The mark [9] stands for this setting: test strain 18, C. difficile 174, anaerobic, agar dilution, read-out: MIC.
Setting [10] is: test strain 9, E. faecalis^LinR (linezolid resistant), read-out: MIC.
Setting [11] is: test strain 5, S. epidermis, read-out: MIC.
Where [12] appears, read: test strain 15, C. difficile 159, anaerobic, agar dilution, read-out: MIC.

Converted amounts (≈) assume the structure as drawn. Read-outs that look alike come from different tables or passages of the source.

In general, MIC refers to the least concentration at which growth counts as inhibited. Take `C/C=C1\NC(=O)[C@H]([C@@H](C)O)NC(=O)c2csc(n2)-c2ccc(-c3nc(-c4nc(C(=O)NC5(C(=O)NCC6OB(O)c7ccccc76)CC5)cs4)cs3)nc2-c2csc(n2)[C@H]([C@@H](C)O)NC(=O)c2csc(n2)[C@H](C(C)C)NC(=O)c2csc1n2` (stereo partly shown) [Compound 6]: the MIC was 1 µg/mL (≈ 0.812 µM) with C. difficile 9689 (setting [3]); 0.5 µg/mL (≈ 0.406 µM) with E. faecium^LinR; 0.06 µg/mL (≈ 0.0487 µM) in the assay on C. difficile 152 (setting [4]); 0.06 µg/mL (≈ 0.0487 µM) in the assay on C. difficile 173 (setting [5]); 0.06 µg/mL (≈ 0.0487 µM) with C. difficile 181; 0.5 µg/mL (≈ 0.406 µM) in the assay on S. aureus^MS [1] (setting [6]). The MIC with S. epidermis^MR (setting [7]) came to 1 µg/mL (≈ 0.812 µM); in the assay on E. faecalis^VanA, 1 µg/mL (≈ 0.812 µM); in the assay with S. aureus^VR, 1 µg/mL (≈ 0.812 µM); in the assay with S. aureus^MS [2] (setting [8]), 0.25 µg/mL (≈ 0.203 µM); in the assay with E. faecium^VRE, 1 µg/mL (≈ 0.812 µM); with E. faecium it was 0.25 µg/mL (≈ 0.203 µM). In addition, the MIC in the assay on C. difficile 174 (setting [9]) came out at 0.06 µg/mL (≈ 0.0487 µM); in the assay on E. faecalis^LinR (setting [10]), 0.125 µg/mL (≈ 0.101 µM); in the assay with E. faecalis, 0.125 µg/mL (≈ 0.101 µM); in the assay on S. epidermis (setting [11]), 0.5 µg/mL (≈ 0.406 µM).

For the molecule `C/C=C1\NC(=O)[C@H]([C@@H](C)O)NC(=O)c2csc(n2)-c2ccc(-c3nc(-c4nc(C(=O)NC5(C(=O)NCCn6c([N+](=O)[O-])cnc6C)CC5)cs4)cs3)nc2-c2csc(n2)[C@H]([C@@H](C)O)NC(=O)c2csc(n2)[C@H](C(C)C)NC(=O)c2csc1n2` [Compound 11], the minimal inhibitory concentration (MIC) in the assay with C. difficile 9689 (setting [3]) came to 1 µg/mL (≈ 0.807 µM); in the assay on C. difficile 159 (setting [12]) it was 0.5 µg/mL (≈ 0.403 µM); in the assay with C. difficile 152 (setting [4]) it was 0.25 µg/mL (≈ 0.202 µM); in the assay with C. difficile 173 (setting [5]) it was 0.125 µg/mL (≈ 0.101 µM); in the assay with C. difficile 181, 0.125 µg/mL (≈ 0.101 µM); in the assay on S. aureus^MS [1] (setting [6]), 0.5 µg/mL (≈ 0.403 µM). Moreover, the MIC is 0.5 µg/mL (≈ 0.403 µM) with S. epidermis^MR (setting [7]); 1 µg/mL (≈ 0.807 µM) in the assay on E. faecalis^VanA; 0.5 µg/mL (≈ 0.403 µM) in the assay on S. aureus^MS [2] (setting [8]); 1 µg/mL (≈ 0.807 µM) in the assay on E. faecium; 0.125 µg/mL (≈ 0.101 µM) in the assay on C. difficile 174 (setting [9]); 0.5 µg/mL (≈ 0.403 µM) in the assay on E. faecalis^LinR (setting [10]). The MIC with C. difficile 161 was 0.5 µg/mL (≈ 0.403 µM); in the assay with E. faecalis, 0.25 µg/mL (≈ 0.202 µM); in the assay with S. epidermis (setting [11]), 0.125 µg/mL (≈ 0.101 µM).

Turning to `C/C=C1\NC(=O)[C@H]([C@@H](C)O)NC(=O)c2csc(n2)-c2ccc(-c3nc(-c4nc(C(=O)NC5(C(=O)NCCCCB(O)O)CC5)cs4)cs3)nc2-c2csc(n2)[C@H]([C@@H](C)O)NC(=O)c2csc(n2)[C@H](C(C)C)NC(=O)c2csc1n2` [Compound 20], the MIC came out at 0.25 µg/mL (≈ 0.211 µM) with C. difficile 9689 (setting [3]); 1 µg/mL (≈ 0.843 µM) in the assay with E. faecium^LinR; 0.5 µg/mL (≈ 0.421 µM) in the assay with C. difficile 159 (setting [12]); 0.25 µg/mL (≈ 0.211 µM) in the assay on C. difficile 152 (setting [4]); 0.5 µg/mL (≈ 0.421 µM) in the assay with C. difficile 173 (setting [5]); 1 µg/mL (≈ 0.843 µM) in the assay with C. difficile 181. Besides, the MIC in the assay on S. aureus^MS [1] (setting [6]) stood at 0.25 µg/mL (≈ 0.211 µM); with S. epidermis^MR (setting [7]), 0.5 µg/mL (≈ 0.421 µM); in the assay with S. aureus^MS [2] (setting [8]), 0.125 µg/mL (≈ 0.105 µM); in the assay with E. faecium^VRE, 1 µg/mL (≈ 0.843 µM); in the assay on E. faecium, 0.5 µg/mL (≈ 0.421 µM); with C. difficile 174 (setting [9]) it was 0.25 µg/mL (≈ 0.211 µM). Moreover, the MIC turned out to be 0.25 µg/mL (≈ 0.211 µM) in the assay on E. faecalis^LinR (setting [10]), 1 µg/mL (≈ 0.843 µM) in the assay with C. difficile 161, 0.5 µg/mL (≈ 0.421 µM) in the assay with E. faecalis and 0.5 µg/mL (≈ 0.421 µM) in the assay on S. epidermis (setting [11]).

For `C/C=C1\NC(=O)[C@H]([C@@H](C)O)NC(=O)c2csc(n2)-c2ccc(-c3nc(-c4nc(C(=O)NC5(C(=O)NN6CC(=O)NC6=O)CC5)cs4)cs3)nc2-c2csc(n2)[C@H]([C@@H](C)O)NC(=O)c2csc(n2)[C@H](C(C)C)NC(=O)c2csc1n2` [Compound 23], the MIC in the assay on C. difficile 9689 (9689) turned out to be 0.25 µg/mL (≈ 0.211 µM); against C. difficile 159 (159), 0.5 µg/mL (≈ 0.422 µM); against C. difficile 152 (152), 0.25 µg/mL (≈ 0.211 µM); with C. difficile 173 (173), 1 µg/mL (≈ 0.844 µM); in the assay on M. abscessus, 0.226 µg/mL (≈ 0.191 µM); with S. aureus^MS [1], 0.5 µg/mL (≈ 0.422 µM). The MIC against S. epidermis^MR stood at 1 µg/mL (≈ 0.844 µM); with S. aureus^MS [2], 0.5 µg/mL (≈ 0.422 µM); against C. difficile 174 (174), 0.125 µg/mL (≈ 0.106 µM); against E. faecalis^LinR it was 1 µg/mL (≈ 0.844 µM); against S. epidermis, 1 µg/mL (≈ 0.844 µM).
